Assay results published in patent publication US6409810B1, “Water-soluble trisazo compounds, aqueous ink composition and colored article” (Nippon Kayaku Kabushiki Kaisha, priority 1997, dated 2002).

Legend:
Assay type in all cases: physicochemical
[1] = Test for resistance to light of the recorded images (carbon arc fade meter, Blue Scale JIS L-0841); details: 20 hours carbon arc fade meter; for light fastness (rank) ink jet paper A: ink jet print on ink jet paper A (Color BJ Paper LC 101, Canon); for light fastness (rank) ink jet paper B: ink jet print on ink jet paper B (coated paper STX73 A4, Sharp); for light fastness (rank) plain paper: ink jet print on plain paper (Canon TLB5A4S)
Description: (§1) A liquid having the following formulation was prepared and passed through a 0.45 μm membrane filter to obtain an aqueous ink composition for ink jet printers.
(§2) An ink jet recording was conducted on three different papers, i.e. plain papers (Canon printer paper A4 (TLB5A4S)), ink jet papers A (Color BJ Paper LC 101; ex. Canon) and ink jet papers B (coated papers for ink jet printer STX73 A4; ex. Sharp) by means of an ink jet printer (trade name NOVA JET III; ex. ENCAD). The thus-recorded images were tested with respect to the resistances to light and water and a color rendering property.
The recorded images were irradiated with light for 20 hours by means of a carbon arc fade meter (ex. SUGA Shikenkisha). Light fastness was judged according to the Blue Scale for light resistance standard as defined in JIS L-0841.

[2] = Color rendering property (hue change under tungsten light versus standard light source, visual); details: hue change under tungsten light compared with standard light source
Description: as §1, §2
Discoloration was judged by the visual examination by comparing the hue change under the tungsten light with that under the standard light source.

[3] = Test for resistance to water of the recorded images (immersion in water, visual examination of dropout); design: key to water fastness plain paper: ∘: Less amount of the compound was dropped out.; Δ: About half of the compound was dropped out.; X: Large amount of the compound was dropped out; details: immersed in water 2 minutes with mild stirring, dried; for water fastness ink jet paper A: ink jet print on ink jet paper A; for water fastness ink jet paper B: ink jet print on ink jet paper B; for water fastness plain paper: ink jet print on plain paper
Description: as §1, §2
Test specimen was immersed in water contained in a beaker with mild stirring for 2 minutes and dried. Amount of the compound was observed by the visual examination before and after the immersion, and dropout of the compound was judged.

| Compound | light fastness (rank) ink jet paper A [1] | light fastness (rank) ink jet paper B [1] | light fastness (rank) plain paper [1] | color rendering property [2] | water fastness ink jet paper A [3] | water fastness ink jet paper B [3] | water fastness plain paper [3] |
| --- | --- | --- | --- | --- | --- | --- | --- |
| COCCOc1cc(N=Nc2cc(S(=O)(=O)O)cc3cc(S(=O)(=O)O)cc(O)c23)c(NC(C)=O)cc1N=Nc1c(S(=O)(=O)O)cc2ccc(N=Nc3ccc(N)cc3O)cc2c1O [compound 0020] | 4 rank | 5 rank | 4-5 rank | ◯ | ◯ | ◯ | Δ˜◯ |
| COc1cc(N=Nc2cc(S(=O)(=O)O)cc3cc(S(=O)(=O)O)cc(O)c23)c(NC(C)=O)cc1N=Nc1c(S(=O)(=O)O)cc2cc(S(=O)(=O)O)c(N=Nc3ccc(N)cc3O)cc2c1O [compound 0231] | 4 rank | 5 rank | 4-5 rank | ◯ | ◯ | ◯ | Δ |
| COCCOc1cc(N=Nc2cc(S(=O)(=O)O)cc3cc(S(=O)(=O)O)cc(O)c23)c(NC(C)=O)cc1N=Nc1c(S(=O)(=O)O)cc2ccc(N=Nc3cc(S(=O)(=O)O)c(N)cc3N)cc2c1O [compound 0022] | 5 rank | 5 rank | 5 rank | ◯ | ◯ | ◯ | Δ˜◯ |
| COc1cc(N=Nc2cc(S(=O)(=O)O)cc3cc(S(=O)(=O)O)cc(O)c23)c(C)cc1N=Nc1c(S(=O)(=O)O)cc2ccc(N=Nc3ccc(O)cc3O)cc2c1O [compound 0003] | 3-4 rank | 4-5 rank | 4-5 rank | ◯ | ◯ | ◯ | Δ |
| COc1cc(N=Nc2cc(S(=O)(=O)O)cc3cc(S(=O)(=O)O)cc(O)c23)c(C)cc1N=Nc1c(S(=O)(=O)O)cc2ccc(N=Nc3ccc(N)cc3N)cc2c1O [compound 0001] | 4-5 rank | 5 rank | 5 rank | ◯ | ◯ | ◯ | Δ˜◯ |
| O=S(=O)(O)c1cc(O)c2c(N=Nc3ccc(N=Nc4c(S(=O)(=O)O)cc5ccc(N=Nc6ccc(O)cc6O)cc5c4O)c4cc(S(=O)(=O)O)ccc34)cc(S(=O)(=O)O)cc2c1 [compound 0025] | 3 rank | 4 rank | 4-5 rank | ◯ | ◯ | ◯ | x˜Δ |
| COc1cc(N=Nc2cc(S(=O)(=O)O)cc3cc(S(=O)(=O)O)cc(O)c23)c(NC(C)=O)cc1N=Nc1c(S(=O)(=O)O)cc2ccc(N=Nc3cc(S(=O)(=O)O)c(N)cc3N)cc2c1O [compound 0014] | 5 rank | 5 rank | 5 rank | ◯ | ◯ | ◯ | Δ |
| COc1cc(N=Nc2cc(S(=O)(=O)O)cc3cc(S(=O)(=O)O)cc(O)c23)c(NC(C)=O)cc1N=Nc1c(S(=O)(=O)O)cc2cc(S(=O)(=O)O)c(N=Nc3ccc(O)cc3O)cc2c1O [compound 0232] | 4 rank | 4 rank | 4 rank | ◯ | ◯ | ◯ | Δ˜◯ |
| COc1cc(N=Nc2cc(S(=O)(=O)O)cc3cc(S(=O)(=O)O)cc(O)c23)c(C)cc1N=Nc1c(S(=O)(=O)O)cc2ccc(N=Nc3ccc(NCC(=O)O)cc3NCC(=O)O)cc2c1O [compound 0007] | 3-4 rank | 4 rank | 4 rank | ◯ | ◯ | ◯ | ◯ |
| Nc1cc(N)c(S(=O)(=O)O)cc1N=Nc1ccc2cc(S(=O)(=O)O)c(N=Nc3ccc(N=Nc4cc(S(=O)(=O)O)cc5cc(S(=O)(=O)O)cc(O)c45)c4ccc(S(=O)(=O)O)cc34)c(O)c2c1 [compound 0027] | 4 rank | 5 rank | 5 rank | ◯ | ◯ | ◯ | x˜Δ |
| COc1cc(N=Nc2cc(S(=O)(=O)O)cc3cc(S(=O)(=O)O)cc(O)c23)c(C)cc1N=Nc1c(S(=O)(=O)O)cc2ccc(N=Nc3cc(S(=O)(=O)O)c(N)cc3N)cc2c1O [compound 0005] | 4-5 rank | 5 rank | 5 rank | ◯ | ◯ | ◯ | Δ˜◯ |
| COc1cc(N=Nc2cc(S(=O)(=O)O)cc3cc(S(=O)(=O)O)cc(O)c23)c(N)cc1N=Nc1c(S(=O)(=O)O)cc2ccc(N=Nc3cc(S(=O)(=O)O)c(N)cc3N)cc2c1O [compound 0048] | 4 rank | 5 rank | 4-5 rank | ◯ | ◯ | ◯ | ◯ |
| COc1cc(N=Nc2cc(S(=O)(=O)O)cc3cc(S(=O)(=O)O)cc(O)c23)c(N)cc1N=Nc1c(S(=O)(=O)O)cc2cc(S(=O)(=O)O)c(N=Nc3ccc(N)cc3O)cc2c1O [compound 0264] | 4 rank | 5 rank | 4-5 rank | ◯ | ◯ | ◯ | ◯ |
| COc1cc(N=Nc2cc(S(=O)(=O)O)cc3cc(S(=O)(=O)O)cc(O)c23)c(NC(C)=O)cc1N=Nc1c(S(=O)(=O)O)cc2ccc(N=Nc3ccc(N)cc3O)cc2c1O [compound 0011] | 4 rank | 4 rank | 4-5 rank | ◯ | ◯ | ◯ | Δ˜◯ |
| COCCOc1cc(N=Nc2cc(S(=O)(=O)O)cc3cc(S(=O)(=O)O)cc(O)c23)c(N)cc1N=Nc1c(S(=O)(=O)O)cc2ccc(N=Nc3cc(S(=O)(=O)O)c(N)cc3N)cc2c1O [compound 0051] | 4 rank | 5 rank | 4-5 rank | ◯ | ◯ | ◯ | ◯ |
| COc1cc(N=Nc2cc(S(=O)(=O)O)cc3cc(S(=O)(=O)O)cc(O)c23)c(NC(C)=O)cc1N=Nc1c(S(=O)(=O)O)cc2cc(S(=O)(=O)O)c(N=Nc3cc(S(=O)(=O)O)c(N)cc3N)cc2c1O [compound 0234] | 5 rank | 5 rank | 5 rank | ◯ | ◯ | ◯ | Δ |
| COc1cc(N=Nc2cc(S(=O)(=O)O)cc3cc(S(=O)(=O)O)cc(O)c23)c(NC(C)=O)cc1N=Nc1c(S(=O)(=O)O)cc2ccc(N=Nc3ccc(O)cc3O)cc2c1O [compound 0012] | 3-4 rank | 4 rank | 4-5 rank | ◯ | ◯ | ◯ | Δ |
| Nc1ccc2cc(S(=O)(=O)O)c(N=Nc3ccc(N=Nc4cc(C(=O)O)cc(C(=O)O)c4)c4ccccc34)c(O)c2c1 [compound 2, reference compound] | 2 rank | 4 rank | 4 rank |  | ◯ | ◯ | ◯ |
| COc1cc(N=Nc2cc(S(=O)(=O)O)cc3cc(S(=O)(=O)O)cc(O)c23)c(C)cc1N=Nc1c(S(=O)(=O)O)cc2ccc(N=Nc3ccc(N)cc3O)cc2c1O [compound 0002] | 4 rank | 5 rank | 4-5 rank | ◯ | ◯ | ◯ | Δ˜◯ |
